Tests used:
[1] = Cassette dosing oral pharmacokinetics in ICR mice; format: in vivo; conditions: ICR (IcrTac:ICR), mouse; cassette oral dose 25 mg/kg, female ICR mice, plasma, 0-8 h, none in table
Protocol: A cassette dosing procedure was utilized to determine pharmaceutical properties of compounds disclosed herein. In this procedure, compounds are selected for each cassette (i.e., cocktail) on the basis that mass spectrometric signals for each compound will not interfere with one another upon mass spectrometric analysis (e.g., will not overlap). The concentration of each compound in the dosing cassette often is about 20 mg/mL to achieve an oral dose level of 25 mg/kg in ICR mice. Aspects of the cassette dosing procedure are described hereafter.
Prepare 0.5 mL of 20 mg/mL dosing solution (in PBS or formulation vehicle) of 12 test compounds. Dilute a dosing solution 20 fold by transferring 10 μL of the stock solution into 190 μL acetonitrile containing 0.1% formic acid to achieve a final concentration of 1 mg/mL. Dilute further a 1 mg/mL solution 1,000 fold by transferring 1 μL of the stock solution into 999 μL acetonitrile containing 0.1% formic acid to achieve a final concentration of 1 μg/mL. Use the 1 μg/mL solution for mass spectrometric method development based on direct infusion. Determine parent/daughter mass spectra of each compound using multiple reaction monitoring (MRM). Compare parent/daughter mass spectra of each compound to assure no cross-reaction interference during LC-MS/MS measurements. Based on MRM mass spectra determine the composition of all cassettes.
Mix 250 μL of four prepared dosing solutions and an oral PK internal standard (20 mg/mL each) according to cassette design to achieve a final concentration of 4 mg/mL. Vortex cassettes rigorously and ultra-sonicate to obtain a clear solution or homogeneous suspension. Use the cassette solutions to dose animals by oral route of administration at 25 mg/kg.
All in vivo experiments follow protocols approved by the Animal Use and Care Committee. Female ICR mice (IcrTac:ICR), 8-10 weeks of age are obtained from Taconic (Hudson, N.Y.). Mice are housed on a 12 h/12 h light/dark cycle with ad libitum access to water and food. After a minimum two week acclimation period, the mice are randomized into groups with a minimum group size of four. The animals used for pharmacokinetic studies have a body-weight range of 25-35 g. A 25 mg/kg (4 mg/ml) dose of a cassette described in Example 1 is orally administered to mice that have been fasted overnight.
After compound administration, serial blood samples are collected via retro-orbital puncture with a capillary tube at various time points (15, 30 minutes and 1, 2, 4, 6 and 8 hours). The samples are transferred to a heparinized 0.5 mL microcentrifuge tube and placed on ice. Plasma is separated by centrifugation and samples are stored at −80° C. until assay.
Dilute a cassette dosing solution (4 mg/mL) four fold by transferring 25 μL of the stock solution into 75 μL of 50% acetonitrile containing 0.1% formic acid to achieve the concentration of 1 mg/mL. Dilute this stock solution further by serial dilutions to make 0.01, 0.1, 1 and 5 μg/mL working standard solutions.
Prepare 500 mL of 0.5 μg/mL solution of bioanalytical internal standard using 100% acetonitrile with 0.1% formic acid. Store the quenching solution in a tightly sealed bottle at 4° C.
Transfer 15 μL of blank mouse plasma to a 96 well plate and precipitate plasma proteins by pipetting of 120 μL of quenching solution to all plasma aliquots. Cover the plate with a matching plate mat and mix well for 30-60 seconds using a vertical multi-tube shaker.
Add 15 μL of the working standard solution of corresponding cassette to quenched plasma and vortex the plate for an additional 30-60 seconds. Then, centrifuge the plate at 4,000 rpm for 10 minutes at 4° C. Without disturbing the plasma protein pellet, transfer 120 μL of the supernatant to a new 96 well plate and dry the sample under nitrogen using a TurboVap® plate evaporator (Caliper Life Sciences; Hopkinton, Mass.). Reconstitute dried residues with 120 μL 20% acetonitrile containing 0.1% formic acid. […]

[2] = Pharmacokinetic evaluation IV bolus and oral (bioavailability) in ICR mice; format: in vivo; conditions: mouse, plasma, IV 5 mg/kg and PO 25 mg/kg, read-out: Bioavailability (% F)
Protocol: The pharmacokinetics properties of drugs are investigated in ICR mice following an intravenous (IV) bolus and oral (PO) doses of drug at 5 mg/kg and 25 mg/kg respectively. Blood samples are collected at predetermined times and the plasma separated. Plasma is separated from the blood samples collected at 5, 15 and 30 minutes and 1, 2, 4, 8 and 24 hours post-dose.
Drug levels are quantified by the LC/MS/MS method described below. Noncompartmental pharmacokinetic analysis is applied for intravenous administration. A linear trapezoidal rule is used to compute AUC(0-24) or AUC(0-8). The terminal t1/2 and C0 are calculated using the last three and the first three data points, respectively
Bioanalysis is performed using a Quattro Micro LC/MS/MS instrument in the MRM detection mode, with an internal standard (IS). Briefly, 15 μL plasma samples are prepared for analysis using protein precipitation with 120 μL of acetonitrile. The supernatants are transferred into a 96 well plate and subjected to LC-MS/MS analysis using a PHENOMENEX® Polar-RP HPLC column. The mobile phases are 10 mM NH4HCO3 in water (Solution-A) and 10 mM NH4HCO3 in methanol (Solution-B). The column is initially equilibrated with 25% Solution-B and followed with 100% Solution B over 5 minutes. The method has a dynamic range from 1 to 10,000 ng/mL. Quantitation of the analytes is performed in the batch mode with two bracketing calibration curves according to the bioanalytical sample list.

| Structure (SMILES) | AUC(0-t) [1] [ng·h/mL] | bioavailability [2] [%] |
| --- | --- | --- |
| Cn1c2ccccc2n2c3nc(N4CCOCC4)c(F)cc3c(=O)c(C(=O)NCCN3CCCC3)c12 | 2000 |  |
| CN1CCCC1CCNC(=O)c1c(=O)c2cc(F)c(N3CCOCC3)nc2n2c3ccccc3n(C)c12 (centres unmarked) | 1190 | 10.4 |
| O=C(NCCN1CCCC1)c1c(=O)c2ccc(N3CCOCC3)nc2n2c1sc1ccccc12 | 2150 | 10.7 |
| CN1CCCC1CCNC(=O)c1c(=O)c2ccc(N3CCOCC3)nc2n2c1sc1ccccc12 (centres unmarked) | 2590 |  |
| Cn1c2ccccc2n2c3nc(N4CCOCC4)ccc3c(=O)c(C(=O)NCCN3CCCC3)c12 | 1260 |  |
| CN1CCCC1CCNC(=O)c1cn2c3c(c(N4CCOCC4)c(F)cc3c1=O)Oc1ccccc1-2 (centres unmarked) | 1430 |  |
| CN1CCCC1CCNC(=O)c1c(=O)c2cc(F)c(N3CCOCC3)nc2n2c1sc1ccccc12 (centres unmarked) | 3810 | 22.4 |
| O=C(NCCN1CCCC1)c1c(=O)c2cc(F)c(N3CCOCC3)nc2n2c1sc1ccccc12 | 2260 |  |
| CN1CCN(C(=O)c2c(=O)c3cc(F)c(N4CCOCC4)nc3n3c2sc2ccccc23)CC1 | 6160 | 30.3 |
| O=C(NCCN1CCC(O)C1)c1c(=O)c2cc(F)c(N3CCOCC3)nc2n2c1sc1ccccc12 (centres unmarked) | 1090 |  |
| CN1CCC(N(C)C(=O)c2c(=O)c3cc(F)c(N4CCOCC4)nc3n3c2sc2ccccc23)C1 (centres unmarked) | 2130 |  |
| O=C(NCCNCC1CCCO1)c1c(=O)c2ccc(N3CCOCC3)nc2n2c1sc1ccccc12 (centres unmarked) | 1900 | 2 |
| O=C(NCCN1CC=CC1)c1c(=O)c2ccc(N3CCOCC3)nc2n2c1sc1ccccc12 | 7940 | 27.5 |
| Cn1cncc1CNC(=O)c1c(=O)c2ccc(N3CCOCC3)nc2n2c1sc1ccccc12 | 2920 | 12.4 |
| O=C(c1c(=O)c2ccc(N3CCOCC3)nc2n2c1sc1ccccc12)N1CCN(c2ncccn2)CC1 | 15300 | 31.1 |
| O=C(c1c(=O)c2ccc(N3CCOCC3)nc2n2c1sc1ccccc12)N1CCN(c2ccccn2)CC1 | 1740 |  |
| O=C(NCCN1CC=CC1)c1cn2c3c(c(N4CCC(c5cnccn5)C4)c(F)cc3c1=O)Oc1cc3ccccc3cc1-2 (centres unmarked) | 8040 |  |
| O=C(NCCN1CC=CCC1)c1c(=O)c2ccc(N3CCOCC3)nc2n2c1sc1ccccc12 | 632 |  |
| O=C(NCCN1CC=CC1)c1c(=O)c2cc(F)c(N3CCOCC3)nc2n2c1sc1ccccc12 | 2000 |  |
| O=C(NCCNCCF)c1c(=O)c2ccc(N3CCOCC3)nc2n2c1sc1ccccc12 | 5020 |  |
| O=C(NCCNCC(F)(F)F)c1c(=O)c2ccc(N3CCOCC3)nc2n2c1sc1ccccc12 | 9450 |  |
| O=C(NCCNCCF)c1c(=O)c2cc(F)c(N3CCOCC3)nc2n2c1sc1ccccc12 | 2220 |  |

| Structure (SMILES) | AUC(0-t) [1] [ng·h/mL] | bioavailability [2] [%] |
| --- | --- | --- |
| O=C(NCCn1ccnc1)c1c(=O)c2ccc(N3CCOCC3)nc2n2c1sc1ccccc12 | 4030 |  |
| Cn1ccnc1CNC(=O)c1c(=O)c2ccc(N3CCOCC3)nc2n2c1sc1ccccc12 | 5490 | 17.9 |
| O=C(NCCN1CCOCC1)c1c(=O)c2ccc(N3CCOCC3)nc2n2c1sc1ccccc12 | 2980 |  |
| Cn1ccnc1CNC(=O)c1c(=O)c2cc(F)c(N3CCOCC3)nc2n2c1sc1ccccc12 | 20300 | 15.8 |
| Cc1nccn1CCNC(=O)c1c(=O)c2ccc(N3CCOCC3)nc2n2c1sc1ccccc12 | 4380 |  |
| O=C(NNC1=NCCN1)c1c(=O)c2cc(F)c(N3CCOCC3)nc2n2c1sc1ccccc12 | 2430 | 0.1 |
| Cn1c2ccccc2n2c3nc(N4CCOCC4)c(F)cc3c(=O)c(C(=O)N3CCN4CCCC4C3)c12 (centres unmarked) | 3210 |  |
| CN1CCN(c2ccc3c(=O)c(C(=O)NCc4ccccn4)c4sc5ccccc5n4c3n2)CC1 | 51100 | 41.4 |
| O=C(NCCNC1CC1)c1c(=O)c2cc(F)c(N3CCOCC3)nc2n2c1sc1ccccc12 | 5150 |  |
| CN1CCCCC1CNC(=O)c1c(=O)c2ccc(N3CCOCC3)nc2n2c1sc1ccccc12 (centres unmarked) | 1050 |  |
| CN1CCCN(C(=O)c2c(=O)c3cc(F)c(N4CCOCC4)nc3n3c2sc2ccccc23)CC1 | 4230 |  |
| Cn1ccnc1CNC(=O)c1c(=O)c2cc(N3CCOCC3)nnc2n2c1sc1ccccc12 | 3780 |  |
| CN1CCCC(NC(=O)c2c(=O)c3cc(F)c(N4CCOCC4)nc3n3c2sc2ccccc23)C1 (centres unmarked) | 1030 |  |
| O=C(NCC1CCCN1)c1c(=O)c2cc(F)c(N3CCOCC3)nc2n2c1sc1ccccc12 (centres unmarked) | 1050 |  |
| CN1CCCCC1CNc1ccc2c(=O)c(C(=O)NCc3ccncc3)c3sc4ccccc4n3c2n1 (centres unmarked) | 790 |  |
| CN1CCCC1CNC(=O)c1c(=O)c2cc(F)c(N3CCOCC3)nc2n2c1sc1ccccc12 (centres unmarked) | 3960 |  |
| CN1CCN(c2nc3c(cc2F)c(=O)c(C(=O)NCc2cn(C)cn2)c2sc4ccccc4n23)CC1 | 45100 |  |
| O=C(NCCNC1CCC1)c1c(=O)c2ccc(N3CCOCC3)nc2n2c1sc1ccccc12 | 3180 |  |
| CN1CCN(c2ccc3c(=O)c(C(=O)NC4CC4)c4n(C)c5ccccc5n4c3n2)CC1 | 5200 |  |
| O=C(NCCNC1CC1)c1c(=O)c2ccc(N3CCOCC3)nc2n2c1sc1ccccc12 [drawing 604] | 5370 | 43.3 |
| Cc1cnc(CNC(=O)c2c(=O)c3ccc(N4CCN(C)CC4)nc3n3c2sc2ccccc23)cn1 [drawing 619] | 166000 |  |

Source: patent US8853234B2, “Quinolone analogs and methods related thereto” (Senhwa Biosciences, Inc., priority 2007, dated 2014)
